Type in all cases: cell-based
The subject of experiment [1] is Aβ42. Nature of the experiment: Method 1: Aβ42 sandwich ELISA in supernatant of SKNBE2 cells carrying APP 695-wild type (Tables 7a, 7b). To be noted: Table 7b; averaged IC50; non-linear regression of percentage of control vs log concentration, 4-parameter equation. The procedure, abridged:
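SKNBE2 cells expressing wild-type APP695 were exposed to compound for 18 hours. Secreted Aβ42 was quantified by sandwich ELISA with C-terminal-selective capture, biotinylated 3D6 detection and TMB read-out at 450 nm. IC50 came from 4-parameter fits of % inhibition or % of untreated control; WST-1 monitored toxicity.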

For experiment [2], the system named is Aβ42. The experiment in a line: Method 2: Aβ42 Alphalisa in supernatant of SKNBE2 cells carrying APP 695-wild type (Table 7c). The settings on record: Method 2, Alphalisa, overnight incubation. The method, then: (§1) Screening was carried out using SKNBE2 cells carrying the APP 695-wild type, grown in Dulbecco's Modified Eagle's Medium/Nutrient mixture F-12 (DMEM/NUT-mix F-12) (HAM) provided by Invitrogen (cat no. 10371-029) containing 5% Serum/Fe supplemented with 1% non-essential amino acids, 1-glutamine 2 mM, Hepes 15 mM, penicillin 50 U/ml (units/ml) en streptomycin 50 μg/ml. Cells were grown to near confluency.
(§2) The screening was performed using a modification of the assay as described in Citron et al (1997) Nature Medicine 3: 67. Briefly, cells were plated in a 384-well plate at 10^4 cells/well in Ultraculture (Lonza, BE12-725F) supplemented with 1% glutamine (Invitrogen, 25030-024), 1% non-essential amino acid (NEAA), penicillin 50 U/ml en streptomycin 50 μg/ml in the presence of test compound at different test concentrations. The cell/compound mixture was incubated overnight at 37° C., 5% CO2. The next day the media were assayed by two sandwich immuno-assays, for Aβ42 and Aβtotal.
(§3) Aβtotal and Aβ42 concentrations were quantified in the cell supernatant using the Aphalisa technology (Perkin Elmer). Alphalisa is a sandwich assay using biotinylated antibody attached to streptavidin coated donorbeads and antibody conjugated to acceptor beads. In the presence of antigen, the beads come into close proximity. The excitation of the donor beads provokes the release of singlet oxygen molecules that trigger a cascade of energy transfer in the acceptor beads, resulting in light emission. To quantify the amount of Aβ42 in the cell supernatant, monoclonal antibody specific to the C-terminus of Aβ42 (JRF/cAβ42/26) was coupled to the receptor beads and biotinylated antibody specific to the N-terminus of Aβ (JRF/AβN/25) was used to react with the donor beads. To quantify the amount of Aβtotal in the cell supernatant, monoclonal antibody specific to the N-terminus of Aβ (JRF/AβN/25) was coupled to the receptor beads and biotinylated antibody specific to the mid region of Aβ (biotinylated 4G8) was used to react with the donor beads.
(§4) To obtain the values reported in Table 7c, the data were calculated as percentage of the maximum amount of amyloid Beta 42 measured in the absence of the test compound. The sigmoidal dose response curves were analyzed using non-linear regression analysis with percentage of the control plotted against the log concentration of the compound. A 4-parameter equation was used to determine the IC50.
(Bead proximity is the source of the signal in Alpha formats.)

For experiment [3], the system named is Aβtotal. The experiment in a line: Method 1: Aβtotal sandwich ELISA in supernatant of SKNBE2 cells carrying APP 695-wild type (Tables 7a, 7b). The settings on record: Table 7b; averaged IC50; non-linear regression of percentage of control vs log concentration, 4-parameter equation. The gist of the method: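 SKNBE2 cells expressing wild-type APP695 were exposed to compound for 18 Hours in Ultraculture with 1% glutamine. Aβtotal in the supernatant was read by 6E10-capture/biotinylated 4G8 sandwich ELISA with a fluorogenic peroxidase read-out, and WST-1 checked toxicity. IC50 came from a 4-parameter fit of percent inhibition or percent of control versus concentration.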
In general terms: In an ELISA, binding on a coated surface is turned into a signal by an enzyme label.

Experiment [4] relates to Aβtotal. Nature of the experiment: Method 2: Aβtotal Alphalisa in supernatant of SKNBE2 cells carrying APP 695-wild type (Table 7c). The settings on record: Method 2, Alphalisa, overnight incubation. The method, then: as §1, §2, §3, §4

Here are results for 38 compounds from patent publication US8946426B2, “Substituted bicyclic heterocyclic compounds as gamma secretase modulators” (Janssen Pharmaceuticals, Inc., priority 2009, dated 2015).

Consider `Cc1ncc(-c2ccc(Nc3cccc4c3nc(C(C)c3ccc(Cl)cc3)n4C)cn2)o1` (racemic) [Compound 87], for which the IC50 (in general, the concentration that inhibits the measured activity by half) was 251 nM with Aβ42 [1], 288 nM in the experiment with Aβ42 [2], over 10000 nM in the experiment with Aβtotal [3] and 9120 nM in the experiment on Aβtotal [4].

As to `Cc1ncc(-c2ccc(Nc3nccc4c3nc(-c3ccc(F)cc3)n4C(C)C)cc2)o1` [Compound 26], the IC50 with Aβ42 [1] was 871 nM; in the experiment with Aβ42 [2] it was 191 nM; in the experiment with Aβtotal [3], over 30000 nM; in the experiment with Aβtotal [4], over 10000 nM.

With `Cc1ncc(-c2ccc(Nc3nccc4c3nc(CC3CC3)n4C)cc2F)o1` [Compound 66], the IC50 in the experiment with Aβ42 [1] was over 3000 nM; with Aβ42 [2] it was over 10000 nM; in the experiment on Aβtotal [4], over 10000 nM.

Consider `COc1cc(Nc2cccc3c2nc(-c2ccc(F)cc2)n3C(C)C)ccc1-c1oc(C)nc1C` [Compound 80], for which the IC50 with Aβ42 [2] was 49 nM; in the experiment with Aβtotal [4] it was over 10000 nM.

For `Cc1nc(C)c(-c2ccc(Nc3cccc4c3nc(-c3ccc(F)cc3)n4C(C)C)cc2)o1` [Compound 81], the IC50 is 95 nM in the experiment on Aβ42 [2] and over 10000 nM in the experiment on Aβtotal [4].

In the case of `COCc1ncc(-c2ccc(Nc3cccc4c3nc(-c3ccc(F)cc3)n4C(C)C)cc2)o1` [Compound 84], the figures for the IC50 in the experiment with Aβ42 [2] and in the experiment with Aβtotal [4] were 112 nM and over 10000 nM, respectively.

Turning to `COc1cc(Nc2cccc3c2nc(C2CCOCC2)n3C(C)C)ccc1-c1cnc(C)o1` [Compound 93], the IC50 in the experiment with Aβ42 [1] is 1860 nM; in the experiment on Aβ42 [2], 2750 nM; in the experiment with Aβtotal [4] it was over 10000 nM.

For the compound `COc1cc(Nc2nc(C)cc3c2nc(-c2ccccc2Cl)n3C)ccc1-c1ocnc1C` [Compound 113], the IC50 worked out at 66 nM in the experiment on Aβ42 [2] and 4900 nM in the experiment on Aβtotal [4].

On to `Cc1ncoc1-c1ccc(Nc2cccc3c2nc(-c2ccc(Cl)s2)n3C(C)C)cn1` [Compound 116], for which the IC50 in the experiment with Aβ42 [2] was 72 nM; in the experiment on Aβtotal [4], over 10000 nM.

Regarding `COc1cc(Nc2nc(C)cc3c2nc(-c2ccc(F)cc2)n3C)ccc1-c1ocnc1C` [Compound 125], the IC50 in the experiment with Aβ42 [1] is 33 nM; in the experiment with Aβ42 [2], 195 nM; with Aβtotal [4], over 10000 nM.

For `COc1cc(Nc2nc(C)cc3c2nc(-c2ccc(F)cc2)n3C)ccc1-c1ccnc(C)c1` [Compound 127], the IC50 with Aβ42 [2] is 44 nM; in the experiment on Aβtotal [4] it was 3630 nM.

On to `COc1cc(Nc2cccc3c2nc(-c2ccc(F)cc2)n3C(C)C)ccc1-c1ccnc(C)c1` [Compound 128], for which the IC50 with Aβ42 [2] (Homo sapiens) was 39 nM; in the experiment on Aβtotal [4] (Homo sapiens) it was 9120 nM.

`COc1nc(Nc2cccc3c2nc(-c2ccc(F)cc2)n3C)ccc1-c1ccnc(C)c1` [Compound 129]: the results for the half-maximal inhibitory concentration (IC50) with Aβ42 [2] and in the experiment on Aβtotal [4] were 17 nM and 5250 nM, respectively.

Regarding `COc1nc(Nc2cccc3c2nc(-c2ccc(F)cc2)n3C(C)C)ccc1-c1ccnc(C)c1` [Compound 130], the IC50 in the experiment with Aβ42 [2] was 30 nM; in the experiment on Aβtotal [4], over 10000 nM.

Turning to `Cc1cc(-c2ccc(Nc3cccc4c3nc(-c3ccc(F)cc3)n4C(C)C)cc2)ccn1` [Compound 131], the IC50 is 28 nM in the experiment on Aβ42 [2] and over 10000 nM in the experiment with Aβtotal [4].

Turning to `Cc1cc(-c2ccc(Nc3nc(C)cc4c3nc(-c3ccc(F)cc3)n4C)cc2)ccn1` [Compound 132], the figures for the IC50 in the experiment on Aβ42 [2] and in the experiment on Aβtotal [4] were 123 nM and 6310 nM, respectively.

Take `Cc1cc(-c2ccc(Nc3cccc4c3nc(-c3ccc(F)cc3)n4C)cc2F)ccn1` [Compound 133]: the results for the IC50 in the experiment with Aβ42 [2] and with Aβtotal [4] were 191 nM and over 10000 nM, respectively.

Regarding `Cc1cc(-c2ccc(Nc3cccc4c3nc(-c3ccc(F)cc3)n4C)nn2)ccn1` [Compound 135], the IC50 in the experiment with Aβ42 [2] is 347 nM; in the experiment on Aβtotal [4] it was over 10000 nM.

As for `Cc1cc(-c2ccc(Nc3nc(C)cc4c3nc(-c3ccc(F)cc3)n4C)cc2F)ccn1` [Compound 136], the IC50 is 112 nM with Aβ42 [2] and over 10000 nM with Aβtotal [4].

For `Cc1cc(-c2ccc(Nc3cccc4c3nc(-c3ccc(F)cc3)n4C(C)C)cc2F)ccn1` [Compound 137], the IC50 was 117 nM in the experiment on Aβ42 [2] and over 10000 nM in the experiment on Aβtotal [4].

Turning to `Cc1cc(-c2ccc(Nc3cccc4c3nc(-c3ccc(F)cc3)n4C)cc2)ccn1` [Compound 138], the IC50 in the experiment on Aβ42 [2] was 49 nM; in the experiment on Aβtotal [4], 7080 nM.

In the case of `COc1cc(Nc2cccc3c2nc(-c2ccc(F)cc2)n3C)ccc1-c1ccnc(C)c1` [Compound 139], the IC50 with Aβ42 [2] is 60 nM; with Aβtotal [4] it was 6610 nM.

For `Cc1cc(-c2ccc(Nc3cccc4c3nc(-c3ccc(F)cc3)n4C(C)C)cc2)cc(C)n1` [Compound 140], the values for the IC50 in the experiment with Aβ42 [2] and with Aβtotal [4] were 759 nM and over 10000 nM, respectively.

Turning to `COc1cc(Nc2cc(C#N)cn3cc(C)nc23)ccc1-c1ocnc1C` [Compound 145], the IC50 is 166 nM with Aβ42 [1], 1050 nM in the experiment on Aβ42 [2] and 6310 nM in the experiment on Aβtotal [4].

For the compound `COc1cc(Nc2cc(C(C)=O)cn3cc(CC(C)C)nc23)ccc1-c1ocnc1C` [Compound 156], the results for the IC50 with Aβ42 [2] (Homo sapiens) and in the experiment on Aβtotal [4] (Homo sapiens) were 42 nM and 8910 nM, respectively.

As to `COc1cc(Nc2nccn3cc(C)nc23)ccc1-c1ocnc1C` [Compound 158], the IC50 in the experiment on Aβ42 [2] was 1860 nM; with Aβtotal [4] it was over 10000 nM.

With `COc1cc(Nc2cc(Cl)cn3cc(C4CCOCC4)nc23)ccc1-c1ocnc1C` [Compound 159], the IC50 with Aβ42 [2] was 269 nM; in the experiment with Aβtotal [4] it was over 10000 nM.

In the case of `COCc1c(-c2ccc(F)cc2)nc2c(Nc3ccc(-c4cnc(C)o4)c(OC)c3)cccn12` [Compound 168], the IC50 with Aβ42 [2] is 51 nM; in the experiment on Aβtotal [4] it was over 10000 nM.

Take `Cc1cc(-c2ccc(Nc3cccn4c(C)c(-c5ccccc5Cl)nc34)cc2F)ccn1` [Compound 182]: the results for the IC50 in the experiment on Aβ42 [2] and in the experiment with Aβtotal [4] were 162 nM and 7760 nM, respectively.

As for `Cc1cc(-c2ccc(Nc3cccn4c(C)c(-c5ccccc5Cl)nc34)cc2)ccn1` [Compound 183], the results for the IC50 with Aβ42 [2] and with Aβtotal [4] were 83 nM and 8710 nM, respectively.

As to `Cc1ncc(-c2ccc(Nc3ccnc4c3nc(-c3ccc(F)cc3)n4C)cc2F)o1` [Compound 187], the IC50 in the experiment on Aβ42 [2] was 62 nM; in the experiment on Aβtotal [4] it was over 10000 nM.

Turning to `Cc1ncc(-c2cnc(Nc3cccc4c3nc(-c3ccc(F)cc3)n4C)nc2)o1` [Compound 188], the IC50 in the experiment on Aβ42 [2] (Homo sapiens) and in the experiment with Aβtotal [4] (Homo sapiens) was over 10000 nM each time.

`COc1cc(Nc2cc(C#N)nc3c2nc(-c2ccc(F)cc2)n3C)ccc1-c1cnc(C)o1` [Compound 189]: the half-inhibitory concentration (IC50) in the experiment on Aβ42 [2] is 2400 nM; in the experiment on Aβtotal [4], over 10000 nM.

With `Cc1ncc(-c2ccc(Nc3cc(C(C)C)nc4c3nc(-c3ccc(F)cc3)n4C)cn2)o1` [Compound 191], the 50% inhibitory concentration (IC50) with Aβ42 [2] is 12 nM; with Aβtotal [4], over 10000 nM.

For `COc1nc(Nc2cccn3c(C)c(-c4ccccc4Cl)nc23)ccc1-c1ccnc(C)c1` [Compound 194], the IC50 in the experiment with Aβ42 [2] is 17 nM; in the experiment on Aβtotal [4], about 6760 nM.

`Cc1ccc(F)cc1-c1cn2nccc(Nc3ccc(-c4ocnc4C)nc3)c2n1` [Compound 197]: the IC50 in the experiment with Aβ42 [2] (Homo sapiens) was 550 nM; in the experiment with Aβtotal [4] (Homo sapiens) it was over 10000 nM.

Turning to `Cc1ccc(F)cc1-c1cn2nc(Cl)cc(Nc3ccc(-c4ocnc4C)nc3)c2n1` [Compound 198], the results for the half-maximal inhibitory concentration (IC50) in the experiment with Aβ42 [2] and with Aβtotal [4] were 1180 nM and 6760 nM, respectively.

`COc1cc(Nc2cccn3c(C)c(-c4ccccc4Cl)nc23)ccc1-c1ccnc(C)c1` [Compound 201]: the results for the IC50 in the experiment with Aβ42 [2] and with Aβtotal [4] were 45 nM and over 10000 nM, respectively.
